Source: patent publication US4973675A, “Hybrid nitrosoureidoanthracyclines having antitumor activity” (University of Tennessee Research Center, priority 1989, dated 1990)
Like-named read-outs stand apart in the source and are kept apart here.

Legend:
[1] = system: human CEM leukemic lymphocytes; test: Growth inhibition of human CEM leukemic lymphocyte suspension cultures, 48 h continuous drug exposure (ID50); type: cell-based; conditions: Homo sapiens, Lymphocyte
Experimental: (§1) Culture and bioassay conditions were as described in Cancer Chemotherapy Pharmacology 20:277 (1987) "Comparative Effects of Adriamycin and DNA-nonbinding Analogues on DNA, RNA, and Protein Synthesis in Vitro", Israel et al., except that cell counts were determined by hemocytometer rather than by automated cell counting.

[2] = system: plasmid PC15 supercoiled DNA; test: DNA unwinding assay (interference with DNA topoisomerase I-mediated unwinding; drug-DNA intercalation); type: biochemical; conditions: for interference with topoisomerase I-mediated conversion of supercoiled DNA / intercalation: 4 concentrations, 125-fold range
Text: DNA unwinding assays were used to measure the ability of a test drug to interfere with DNA topoisomerase I-mediated unwinding of plasmid PC15 supercoiled DNA. DNA topoisomerase I controls the topology of double-stranded DNA and is itself not inhibited by DNA intercalating agents. Rather, intercalating agents cause distortion of the torsional angle between adjacent DNA strand components and thereby interfere with the ability of topoisomerase I to convert supercoiled DNA into relaxed forms. Accordingly, this assay is taken as the definitive test of drug-DNA intercalation.
Drugs were tested at 4 concentrations over a 125-fold concentration range. […] These compounds are 2-chloroethylurea derivatives of daunorubicin and adriamycin, respectively (i.e. not nitrosoureas, but chemical intermediates from which the nitrosoureas were derived).

[3] = system: calf thymus DNA; test: Interstrand cross-link formation in isolated calf thymus DNA, ethidium bromide fluorescence assay; type: biochemical; conditions: 10 mM, 4 hours at 50° C.
Experimental: To further assess the alkylation potential of AD 312, the ability of this agent to form interstrand cross-links in isolated calf thymus DNA was examined using an ethidium bromide fluorescence assay. […] In one set of experiments, DNA was exposed briefly to AD 312 (30 minutes at 50° C.) before being reisolated by precipitation with ethanol. […] Such continuing reaction reflects the presence in the DNA of long-lived precursors of crosslinks similar to what has been found for the classical antitumor chloroethylnitrosoureas. […] It appears, therefore, that AD 312 induces DNA interstrand crosslinks via an initial adduct at O^6 -guanine.

[4] = Solubility in water or saline; type: physicochemical
Experimental: Accordingly, the compounds are formulated for administration by dissolving the compound in a pharmaceutically acceptable non-toxic carrier which contains a surfactant. The present inventors employ a formulation of 10% Cremaphor EL (a polyhydroxylated castor oil derivative) available from BASF Chemicals, 10% ethanol and 80% aqueous media (sterile water or saline solution). That quantity of the compound desired for establishing an effective dose is dissolved in a 1:1 mixture of Cremaphor EL and ethanol. Thereafter, sufficient aqueous medium is added with stirring to develop a final formulation containing 80% aqueous medium. This formulation is administered parenterally.

[5] = system: DNA topoisomerase II; test: Drug-stimulated topoisomerase II-mediated DNA cleavage assay (end-labeled PMC41 DNA); type: biochemical; conditions: 625-fold concentration range
Text: FIGS. 5A and 5B are a photographic reproduction of the results of drug-stimulated topoisomerase II-mediated DNA cleavage assays performed on various compounds, including compounds of the present invention.
DNA intercalation is a necessary but not a sufficient requirement for DNA topoisomerase II-mediated DNA cleavage. Accordingly, determination of drug-induced enzyme inhibition requires direct assay with isolated topoisomerase II. These assays involve determination of drug-enhanced topoisomerase II-mediated cleavage of PMC41 DNA appropriately end-labeled with [α-^32 P]dATP. As better seen in FIG. 5B, lane B, purified topoisomerase II, under the assay conditions, causes fragmentation of the DNA (background cleavage), as indicated by the radioautographic appearance of bands of cleaved DNA having differing mass values.

[6] = system: murine L1210 leukemia cells; test: Clonogenic assay with cultured murine L1210 leukemia cells, 1 h drug exposure (LD90); type: cell-based; conditions: Mus musculus, L1210; 1 hr drug exposure; read-out: L1210 LD90 (dose killing 90% of clonogens)
Experimental: as §1
+Dose killing 90% of clonogens, 1hr. drug exposure.

[7] = CEM, 48 hr continuous drug exposure (Table 2), read-out: ID50 (the source's name)

Row | SMILES | IC50 [1, 7] [nM] | also measured
1 | CNC(=O)N[C@H]1C[C@H](O[C@H]2C[C@](O)(C(C)=O)Cc3c(O)c4c(c(O)c32)C(=O)c2c(OC)cccc2C4=O)O[C@@H](C)[C@H]1O [AD 305] | 2300 | –
2 | CCNC(=O)N[C@H]1C[C@H](O[C@H]2C[C@](O)(C(C)=O)Cc3c(O)c4c(c(O)c32)C(=O)c2c(OC)cccc2C4=O)O[C@@H](C)[C@H]1O [AD 306] | > 1000 | –
3 | COc1cccc2c1C(=O)c1c(O)c3c(c(O)c1C2=O)C[C@@](O)(C(C)=O)C[C@@H]3O[C@H]1C[C@H](NC(=O)NCCCl)[C@H](O)[C@H](C)O1 [AD 307, 2-chloroethylureidodaunorubicin] | 300 | interference with topoisomerase I-mediated conversion of supercoiled DNA / intercalation [2]: reasonably strong intercalators; interstrand crosslink formation [3]: appeared to produce no such effect
4 | CCCNC(=O)N[C@H]1C[C@H](O[C@H]2C[C@](O)(C(C)=O)Cc3c(O)c4c(c(O)c32)C(=O)c2c(OC)cccc2C4=O)O[C@@H](C)[C@H]1O [AD 308] | > 5000 | –
5 | COc1cccc2c1C(=O)c1c(O)c3c(c(O)c1C2=O)C[C@@](O)(C(C)=O)C[C@@H]3O[C@H]1C[C@H](NC(=O)Nc2ccccc2)[C@H](O)[C@H](C)O1 [AD 309] | > 1000 | –
6 | COc1cccc2c1C(=O)c1c(O)c3c(c(O)c1C2=O)C[C@@](O)(C(C)=O)C[C@@H]3O[C@H]1C[C@H](NC(=O)N(C)N=O)[C@H](O)[C@H](C)O1 [AD 310] | 1400 | –
7 | CCN(N=O)C(=O)N[C@H]1C[C@H](O[C@H]2C[C@](O)(C(C)=O)Cc3c(O)c4c(c(O)c32)C(=O)c2c(OC)cccc2C4=O)O[C@@H](C)[C@H]1O [AD 311] | – | IC50 ([1]; 48 h, read-out: ID50): 1500 nM
8 | CCCN(N=O)C(=O)N[C@H]1C[C@H](O[C@H]2C[C@](O)(C(C)=O)Cc3c(O)c4c(c(O)c32)C(=O)c2c(OC)cccc2C4=O)O[C@@H](C)[C@H]1O [AD 313] | > 1000 | –
9 | COc1cccc2c1C(=O)c1c(O)c3c(c(O)c1C2=O)C[C@@](O)(C(C)=O)C[C@@H]3O[C@H]1C[C@H](NC(=O)NC(C)C)[C@H](O)[C@H](C)O1 [AD 328] | > 1000 | –
10 | COc1ccc(NC(=O)N[C@H]2C[C@H](O[C@H]3C[C@](O)(C(C)=O)Cc4c(O)c5c(c(O)c43)C(=O)c3c(OC)cccc3C5=O)O[C@@H](C)[C@H]2O)cc1 [AD 330] | > 1000 | –
11 | COc1cccc2c1C(=O)c1c(O)c3c(c(O)c1C2=O)C[C@@](O)(C(C)=O)C[C@@H]3O[C@H]1C[C@H](NC(=O)Nc2ccc(F)cc2)[C@H](O)[C@H](C)O1 [AD 332] | – | IC50 ([1]; 48 h, read-out: ID50): > 1000 nM
12 | COc1cccc2c1C(=O)c1c(O)c3c(c(O)c1C2=O)C[C@@](O)(C(C)=O)C[C@@H]3O[C@H]1C[C@H](NC(=O)Nc2cccc(C(F)(F)F)c2)[C@H](O)[C@H](C)O1 [AD 334] | 830 | –
13 | CCOC(=O)NC(=S)N[C@H]1C[C@H](O[C@H]2C[C@](O)(C(C)=O)Cc3c(O)c4c(c(O)c32)C(=O)c2c(OC)cccc2C4=O)O[C@@H](C)[C@H]1O [AD 336] | 600 | –
14 | COc1cccc2c1C(=O)c1c(O)c3c(c(O)c1C2=O)C[C@@](O)(C(=O)CO)C[C@@H]3O[C@H]1C[C@H](NC(=O)N(CCCl)N=O)[C@H](O)[C@H](C)O1 [AD 337] | – | solubility ([4]; water or saline solution): essentially insoluble in water or saline solution; solubility ([4]; water, of the order of, read-out: solubility in water): < 25 µg/mL
15 | CNC(=O)N[C@H]1C[C@H](O[C@H]2C[C@](O)(C(=O)CO)Cc3c(O)c4c(c(O)c32)C(=O)c2c(OC)cccc2C4=O)O[C@@H](C)[C@H]1O [AD 342] | 2000 | –
16 | COc1cccc2c1C(=O)c1c(O)c3c(c(O)c1C2=O)C[C@@](O)(C(=O)CO)C[C@@H]3O[C@H]1C[C@H](NC(=O)N(C)N=O)[C@H](O)[C@H](C)O1 [AD 343] | – | IC50 ([1]; 48 h, read-out: ID50): 480 nM
17 | CCNC(=O)N[C@H]1C[C@H](O[C@H]2C[C@](O)(C(=O)CO)Cc3c(O)c4c(c(O)c32)C(=O)c2c(OC)cccc2C4=O)O[C@@H](C)[C@H]1O [AD 344] | – | IC50 ([1]; 48 h, read-out: ID50): 580 nM
18 | CCN(N=O)C(=O)N[C@H]1C[C@H](O[C@H]2C[C@](O)(C(=O)CO)Cc3c(O)c4c(c(O)c32)C(=O)c2c(OC)cccc2C4=O)O[C@@H](C)[C@H]1O [AD 345] | – | IC50 ([1]; 48 h, read-out: ID50): 610 nM
19 | COc1cccc2c1C(=O)c1c(O)c3c(c(O)c1C2=O)C[C@@](O)(C(=O)CO)C[C@@H]3O[C@H]1C[C@H](NC(=O)NCCCl)[C@H](O)[C@H](C)O1 [AD 346, 2-chloroethylureidoadriamycin] | 90 | interference with topoisomerase I-mediated conversion of supercoiled DNA / intercalation [2]: reasonably strong intercalators; enhancement of topoisomerase II-mediated DNA cleavage [5]: do not enhance topoisomerase II-mediated cleavage
20 | CCCNC(=O)N[C@H]1C[C@H](O[C@H]2C[C@](O)(C(=O)CO)Cc3c(O)c4c(c(O)c32)C(=O)c2c(OC)cccc2C4=O)O[C@@H](C)[C@H]1O [AD 348] | 770 | –
21 | CCCN(N=O)C(=O)N[C@H]1C[C@H](O[C@H]2C[C@](O)(C(=O)CO)Cc3c(O)c4c(c(O)c32)C(=O)c2c(OC)cccc2C4=O)O[C@@H](C)[C@H]1O [AD 349] | 430 | –
22 | COc1cccc2c1C(=O)c1c(O)c3c(c(O)c1C2=O)C[C@@](O)(C(=O)CO)C[C@@H]3O[C@H]1C[C@H](NC(=O)NC(C)C)[C@H](O)[C@H](C)O1 [AD 350] | 720 | –
23 | COc1cccc2c1C(=O)c1c(O)c3c(c(O)c1C2=O)C[C@@](O)(C(=O)CO)C[C@@H]3O[C@H]1C[C@H](NC(=O)Nc2ccccc2)[C@H](O)[C@H](C)O1 [AD 352] | 400 | –
24 | COc1ccc(NC(=O)N[C@H]2C[C@H](O[C@H]3C[C@](O)(C(=O)CO)Cc4c(O)c5c(c(O)c43)C(=O)c3c(OC)cccc3C5=O)O[C@@H](C)[C@H]2O)cc1 [AD 354] | 710 | –
25 | COc1cccc2c1C(=O)c1c(O)c3c(c(O)c1C2=O)C[C@@](O)(C(=O)CO)C[C@@H]3O[C@H]1C[C@H](NC(=O)Nc2ccc(F)cc2)[C@H](O)[C@H](C)O1 [AD 356] | 1140 | –
26 | CCOC(=O)NC(=S)N[C@H]1C[C@H](O[C@H]2C[C@](O)(C(=O)CO)Cc3c(O)c4c(c(O)c32)C(=O)c2c(OC)cccc2C4=O)O[C@@H](C)[C@H]1O [AD 360] | 360 | –
27 | COc1cccc2c1C(=O)c1c(O)c3c(c(O)c1C2=O)C[C@@](O)(C(C)=O)C[C@@H]3O[C@H]1C[C@@H]2NC(=O)O[C@@H]2[C@H](C)O1 [AD 362] | 880 | –
28 | COc1cccc2c1C(=O)c1c(O)c3c(c(O)c1C2=O)C[C@@](O)(C(=O)CO)C[C@@H]3O[C@H]1C[C@@H]2NC(=O)O[C@@H]2[C@H](C)O1 [AD 363] | 710 | –
29 | COc1cccc2c1C(=O)c1c(O)c3c(c(O)c1C2=O)C[C@@](O)(C(=O)CO)C[C@@H]3O[C@H]1C[C@H](NC(=O)NCCCl)[C@@H](O)[C@H](C)O1 [AD 391, 2-chloroethylureidoepirubicin] | 80 | interference with topoisomerase I-mediated conversion of supercoiled DNA / intercalation [2]: strong intercalators; enhancement of topoisomerase II-mediated DNA cleavage [5]: do not enhance topoisomerase II-mediated cleavage
30 | COc1cccc2c1C(=O)c1c(O)c3c(c(O)c1C2=O)C[C@@](O)(C(=O)CO)C[C@@H]3O[C@H]1C[C@H](N)[C@@H](O)[C@H](C)O1 [Epirubicin, epirubicin, reference compound] | – | relative strength of drug-DNA intercalation (arbitrary scale) ([2]; 0 = no intercalation, 9 = very strong intercalation): 7; IC50 ([1]; suspension culture, 48 hr continuous drug exposure (Table 3), read-out: CEM, ID50 (50% growth-inhibitory concentration)): 30 nM; IC90 [6]: 430 nM
